Test results taken from patent US6716596B2, “Agents for replacement of NAD+/NADH system in enzymatic reactions” (The Regents of the University of California, priority 2001, dated 2004).
Counter-ions that a name gives are not always drawn.

How the values were obtained:
[1] = regioselective reduction of biomimics with catalyst precursor (2) and sodium formate, followed by 1H NMR; conditions: disappearance of pyridinium signals vs [(CH3)4N]OTf during first 2 hours; compound (1a) set to 1.0
Experimental: The relative rates, seen tabulated in FIG. 1C, were determined by observing disappearance of the pyridinium signals versus an internal standard, [(CH3)4N]OTf (tetramethylammonium triflate), during the first 2 hours, where the relative rate of 1-benzylnicotinamide triflate (1) was set to 1.0. The turnover frequencies were calculated by the formation of mmol of product/mmol of catalyst/hour. The total turnover number in 24 hours was ˜95 for all substrates that gave product. The reactions were conducted in presilylated J. Young NMR tubes and were followed by ^1H NMR.
The electronic effect of differently substituted nicotinamide substrates was determined by their relative rates. The relative rates of these compounds were determined by observing the disappearance of the pyridinium signals compared to interval standard, [(CH3)4N]OTf, during the first 2 hours, where the relative rate of compound (1a) was 1.0.
In a typical reaction, a J. Young NMR tube was charged, biomimic substrates (1a)-(1i) (1.0 mol), 2 (1% mol), and HCO2Na (1.1 mol) used as the hydride source and a Schlenk techniques were conducted to deoxygenate the solid mixture. A diluted solvent was added to these solids for compounds (1a)-(1i), the solvent was D2O-THF-d8 (1=1 0.75 mL, deoxygenated), and the NMR tube was placed in a liquid nitrogen bath. The contents were further degassed by two successive freeze-pump-thaw cycles. After thawing out the reaction mixture, the J. Young NMR tube was immediately put in a salted ice-bath and covered with aluminum foil. The reaction was then followed by ^1H NMR spectroscopy at 26° C. temperature, after a speedy thawing out.
The given relative rates and turnover frequencies were determined by decreasing integration of the corresponding pyridinium salts measured against an internal standard, (CH3)4N(OTf), during the first 2 h of the reaction. The ratios of the 1,4- and 1,6-dihydronicotinamide derivatives of compounds (1a), (1b) and (1d)-(1g) were obtained by comparison of the resonance signals with those of authentic samples, where the diagnostic signal is the resonance for —CH2Ph moiety which can be identified unambiguously in the ^1H NMR spectrum.

[2] = competitive regioselective substrate reduction experiments with rhodium catalyst precursor (2)
Experimental: In order to establish whether the σ-donating ability or the electron-withdrawing effect of the 3-substituent of the 1-benzylnicotinamide was the important parameter, several competitive substrate reduction experiments were performed.
For this purpose, the compound (1a) 1-benzylnicotinamide, was reduced with rhodium catalyst precursor (2) in the presence of its alternatively substituted derivatives, compounds (1e), substituted with —C(O)—CH3, (1g), substituted with (—CN), (1d), substituted with —C(S)NH2 or (1f), substituted with —C(O)OCH3, and their competitive reduction was determined.

SMILES: NC(=O)c1ccc[n+](Cc2ccccc2)c1 [Compound 1a, 1-Benzylnicotinamide, Triflate Salt]
- relative rate of regioselective reduction [1]: 1.0
- times faster than the —C(O)CH3 analog (1e) ([2]; competitive reduction of (1a) with (1e)): 1.1 times
- times faster than the —CN analog (1g) ([2]; competitive reduction of (1a) with (1g)): 1.3 times
